In patent publication US9890315B2, “Use of polylysine as a shale inhibitor” (BASF SE, priority 2011, dated 2018):

Experiments:
[1] = Performance test: Fann rheology and gel strength of bentonite suspension with shale inhibitor; conditions: 7.14 g/l Shale Inhibitor and 85.7 g/l Bentonite
Method: 350 ml of tap water are introduced into a beaker, 2.5 g of the shale inhibitor (calculated as dry mass—i.e. quaternized or non-quaternized polylysine or a prior art product) are added and the mixture is stirred for 20 min. The solution is transferred into an HB mixing cup. 30 g of Cebogel® NT (Bentonite, Cebo Holland B.V., The Netherlands) are added as a model substance for shale and the mixture is stirred at low speed for 10 min. Subsequently, the Fann rheology and the gel strength are determined.

[2] = OECD 306: Biodegradability in Seawater, Closed Bottle Method
Method: According to the method described in “OECD Guidelines for Testing of Chemicals—1992 OECD 306: Biodegradability in Seawater, Closed Bottle Method”, the biodegradability of the quaternized polylysine according to Example 3a, of Comp. sample 2 (Ultrahib®) and of a reference substance (sodium benzoate) was evaluated after 28 days and 60 days.

Row | SMILES | Fann 35 values 3 ([1]; tap water) [Pa] | Fann 35 values 6 ([1]; tap water) [Pa] | Fann 35 values 100 ([1]; tap water) [Pa] | Fann 35 values 200 ([1]; tap water) [Pa] | Fann 35 values 300 ([1]; tap water) [Pa] | Fann 35 values 600 ([1]; tap water) [Pa] | Gel strength 10′ ([1]; tap water) [Pa] | Gel strength 10″ ([1]; tap water) [Pa] | PV ([1]; tap water) [mPa*s] | YP ([1]; tap water) [Pa] | pH ([1]; pH of the test mixture) | biodegradability Day 28 ([2]; after 28 days) [%] | biodegradability Day 60 ([2]; after 60 days) [%]
1 | C[N+](C)(C)CCO.[Cl-] [Comp. 3, Cholinchlorid] | 4 | 4 | 5 | 6 | 6 | 8 | 3 | 3 | 3 | 5 | 9.1 | – | –
2 | O=C([O-])c1ccccc1.[Na+] [Reference, sodium benzoate] | – | – | – | – | – | – | – | – | – | – | – | 80 | 70
